From US11471459B2, “Compounds with enhanced anti-tumor effects” (FONDAZIONE PER L'ISTITUTO ONCOLOGICO DI RICERCA (IOR), priority 2018, dated 2022)

Assays:
Karpas-422 = test: Proliferation MTT assay, 72 h; format: cell-based; conditions: Homo sapiens, Karpas-422 (GCB-DLBCL), 72 h exposure
Experimental: (§1) Thirty-nine cell lines derived from activated B cell-like (ABC) (n=3) and germinal center B Cell (GCB) (n=12) diffuse large B cell lymphoma (DLBCL), mantle cell lymphoma (MCL) (n=9), chronic lymphocytic leukemia (CLL) (n=2), Hodgkin lymphoma (HL) (n=4), cutaneous T cell lymphoma (CTCL) (n=3), peripheral T cell lymphoma (PTCL) (n=1), anaplastic large T cell lymphoma (ALCL) (n=4), acute T cell leukemia (ATCL) (n=1) were cultured according to the recommended conditions. All media were supplemented with fetal bovine serum (10%), Penicillin-Streptomycin-Neomycin (˜5,000 units penicillin, 5 mg streptomycin and 10 mg neomycin/mL, Sigma) and L-glutamine (1%).
(§2) EG-011 was dissolved in dimethyl sulphoxide (DMSO) to obtain a stock concentration of 10 mM for in vitro experiments. EG-011 was dissolved in 25% hydroxypropyl beta cyclodextrin (HP-β-CD) in water and adjusted at pH 6.0 using NaOH (0.1 N) and HCl (0.1 N) for in vivo experiments. Application volume was 4.5 mL/kg (100 mg in 4.5 mL), and mice received 200 microliters (corresponding to 200 mg/kg) though intra peritoneal i.p. injection, once per day and five days per week.
(§3) Cells were seeded in 96-well plates (non-tissue culture treated) at a density of 10,000 cells for all cell lines. Each compound was dissolved in dimethyl sulphoxide (DMSO). For treatment of cells, compounds were serially diluted in the appropriate tissue culture medium, at a range of 20 mcM-78 nM following a 1:2 dilution factor and added to cells (in three replicates). Cells were incubated for 72 hours at 37° C., 5% CO2. DMSO alone was added to negative control (untreated) cells. Wells containing medium only were included on each plate and served as blanks for absorbance readings. MTT (Sigma-Aldrich Chemie GmbH, Buchs, Switzerland) was prepared as a 5 mg/ml stock in PBS and filter-sterilized. MTT solution (22 μL) was added to each well and tissue culture plates were incubated at 37° C. for 4 hours. Cells were then lysed with 25% SDS lysis buffer and absorbance was read at 570 nm using an AD340 plate reader (Beckman Coulter International SA, Switzerland). Absorbance values were expressed in percentage of proliferating cells in comparison with control cells (control corresponds to 100%).

KI-JK = test: Proliferation MTT assay, 72 h; format: cell-based; conditions: KI-JK (T Cell - ALCL), 72 h exposure
Experimental: as §1, §2, §3

AM-HLH = test: Proliferation MTT assay, 72 h; format: cell-based; conditions: AM-HLH (HL), 72 h exposure
Experimental: as §1, §2, §3

OCI-LY-1 = test: Proliferation MTT assay, 72 h; format: cell-based; conditions: Homo sapiens, OCI-Ly1, OCI-LY-1 (GCB-DLBCL), 72 h exposure
Experimental: as §1, §2, §3

JEKO1 = test: Proliferation MTT assay, 72 h; format: cell-based; conditions: Homo sapiens, JeKo-1, JEKO1 (MCL), 72 h exposure
Experimental: as §1, §2, §3

OCI-LY-3 = test: Proliferation MTT assay, 72 h; format: cell-based; conditions: Homo sapiens, OCI-Ly3, OCI-LY-3 (ABC-DLBCL), 72 h exposure
Experimental: as §1, §2, §3

OCI-LY-10 = test: Proliferation MTT assay, 72 h; format: cell-based; conditions: Homo sapiens, OCI-Ly10, OCI-LY-10 (ABC-DLBCL), 72 h exposure
Experimental: as §1, §2, §3

L-82 = test: Proliferation MTT assay, 72 h; format: cell-based; conditions: L-82 (T Cell - ALCL), 72 h exposure
Experimental: as §1, §2, §3

OCI-LY-7 = test: Proliferation MTT assay, 72 h; format: cell-based; conditions: Homo sapiens, OCI-Ly7, OCI-LY-7 (GCB-DLBCL), 72 h exposure
Experimental: as §1, §2, §3

FARAGE = test: Proliferation MTT assay, 72 h; format: cell-based; conditions: FARAGE (GCB-DLBCL), 72 h exposure
Experimental: as §1, §2, §3

KARPAS-299 = test: Proliferation MTT assay, 72 h; format: cell-based; conditions: Homo sapiens, KARPAS-299 (T Cell - ALCL), 72 h exposure
Experimental: as §1, §2, §3

OCI-LY-19 [1] = test: Proliferation MTT assay, 72 h; format: cell-based; conditions: Homo sapiens, OCI-LY19, OCI-LY-19 (GCB-DLBCL), 72 h exposure
Experimental: as §1, §2, §3

SP53 = test: Proliferation MTT assay, 72 h; format: cell-based; conditions: SP53 (MCL), 72 h exposure
Experimental: as §1, §2, §3

L-1236 = test: Proliferation MTT assay, 72 h; format: cell-based; conditions: L-1236 (HL), 72 h exposure
Experimental: as §1, §2, §3

OCI-LY-19 [2] = test: Propidium iodide cell cycle staining; format: cell-based; conditions: OCI-LY-19, 500 and 2000 nM, 72 h
Experimental: (§4) Lymphoma cells (10^6 per condition) were fixed in cold 70% ethanol (for at least 30 minutes at 4° C.), added dropwise to the cell pellet while vortexing. Cells were washed ×2 in PBS and Spin at 2000 rpm; supernatant was discarded and cells suspended in PBS (0.5 mL) and treated with Ribonuclease (50 μl of 100 μg/mL RNase). Then 200 μl of propidium iodide (50 μg/ml) were added and data acquisition was performed by using BD FACS-Canto II.

PLL cell lines = test: Proliferation MTT assay, median per subtype; format: cell-based; conditions: PLL cell lines (n=2), 72 h
[3] = test system: T cell lymphomas (CTCL, PTCL, ALCL) cell lines; test: Proliferation MTT assay, median per subtype; format: cell-based; conditions: 72 h
Experimental: as §1, §2, §3
(§5) Binomial exact 95% confidence intervals (95% C.I.s) were calculated for median percentages. Differences in IC50 values among lymphoma subtypes were calculated using the t-Student test. Statistical significance was defined by P values of 0.05 or less.

MCL cell lines = test: Proliferation MTT assay, median per subtype; format: cell-based; conditions: MCL cell lines (n=9), 72 h
Experimental: as §1, §2, §3, §5

GCB-DLBCL cell lines = test: Proliferation MTT assay, median per subtype; format: cell-based; conditions: GCB-DLBCL cell lines (n=12), 72 h
Experimental: as §1, §2, §3, §5

HL cell lines = test: Proliferation MTT assay, median per subtype; format: cell-based; conditions: HL cell lines (n=4), 72 h
Experimental: as §1, §2, §3, §5

ABC-DLBCL cell lines = test: Proliferation MTT assay, median per subtype; format: cell-based; conditions: ABC-DLBCL cell lines (n=3), 72 h
Experimental: as §1, §2, §3, §5

REC1 = test: Propidium iodide cell cycle staining; format: cell-based, human; conditions: REC1, 500 and 2000 nM, 72 h
Experimental: as §4

[4] = test system: human Mantle cell lymphoma REC1 cells; test: Xenograft experiment, REC1 model; format: in vivo; conditions: 200 mg/Kg i.p. once per day, 5 days per week
Experimental: as §2
NOD-Scid (NOD.CB17-Prkdcscid/NCrHsd) mice were purchased from Harlan Laboratory (five-six weeks of age, approximately 20 g body weight). Mice maintenance and animal experiments were performed under institutional guidelines established for the Animal Facility and with study protocols approved by the local Cantonal Veterinary Authority. Mice were subcutaneously engrafted with 15×10^6 of human Mantle cell lymphoma REC1 cells and divided into two experimental groups. Starting with tumors of 180 mm^3 volume, mice underwent treatment with single agent while controls received vehicle only. EG-011 was administered 5 days per week at the dose of 200 mg/kg (200 microliters) though i.p. injection.

39 lymphoma cell lines = test: Proliferation MTT assay, median across the 39 cell lines; format: cell-based; conditions: 95% C.I. 100-20000 nM, 72 h
Experimental: as §1, with “(1%). […]” for “(1%).”
Cells were seeded in 96-well plates (non-tissue culture treated) at a density of 10,000 cells for all cell lines. […] Wells containing medium only were included on each plate and served as blanks for absorbance readings. […] Cells were then lysed with 25% SDS lysis buffer and absorbance was read at 570 nm using an AD340 plate reader (Beckman Coulter International SA, Switzerland). Absorbance values were expressed in percentage of proliferating cells in comparison with control cells (control corresponds to 100%).
Binomial exact 95% confidence intervals (95% C.I.s) were calculated for median percentages. Differences in IC50 values among lymphoma subtypes were calculated using the t-Student test. […]

C=CC(=O)N1CCCC(n2c(=O)c3ncccc3n(Cc3ccc(Oc4ccccc4)cc3)c2=O)C1 (centres unmarked) [EG-011, 1-[(4-phenoxyphenyl)methyl]-3-(1-prop-2-enoyl-3-piperidyl)pyrido[3,2-d]pyrimidine-2,4-dione]
IC50 (Karpas-422): 1.5 µM
IC50 (KI-JK): 20 µM
IC50 (AM-HLH): 18 µM
IC50 (OCI-LY-1): 0.25 µM
IC50 (JEKO1): 4 µM
IC50 (OCI-LY-3): 10 µM
IC50 (OCI-LY-10): 5 µM
IC50 (L-82): 2 µM
IC50 (OCI-LY-7): 5 µM
IC50 (FARAGE): 2 µM
IC50 (KARPAS-299): 20 µM
IC50 (OCI-LY-19 [1]): 0.15 µM
IC50 (SP53): 1 µM
IC50 (L-1236): 9 µM
cells in the sub-GO phase (dead cells) (OCI-LY-19 [2]): dose dependent increase of the cells in the sub-GO phase
IC50 (PLL cell lines): 7.5 µM
IC50 [3]: 2.5 µM
IC50 (MCL cell lines): 1 µM
IC50 (GCB-DLBCL cell lines): 0.55 µM
IC50 (HL cell lines): 13.5 µM
IC50 (ABC-DLBCL cell lines): 10 µM
cells in the sub-GO phase (dead cells) (REC1): dose dependent increase of the cells in the sub-GO phase
body weight of treated animals (in vivo toxicity) [4]: no reduction in the body weight
tumor growth (volume) versus control ([4]; Day 6, Day 7, Day 9, P<0.05): delayed tumor growth
tumor weight versus control ([4]; P<0.001 (FIG. 8)): delayed
IC50 (39 lymphoma cell lines): 2.5 µM
